In the supplement of paper PMC6045584:
± gives the standard deviation of the averaged measurements.

How the values were obtained:
[1] = compound: Cc1cn(-c2cc(NC(=O)c3ccc(C)c(Nc4nccc(-c5cccnc5)n4)c3)cc(C(F)(F)F)c2)cn1 [NILOTINIB]; test: surviving fraction relative to DMSO-only wells; higher = less growth inhibition; settings: exposure time: 5 days
How it was run: (§1)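 Log-phase tumour cells were seeded at 250–500 per well in 384-well plates and, from 24 hours after seeding, exposed continuously for five days to inhibitors at 0.5, 1, 5, 10, 50, 100, 500 and 1000 nM. Surviving fraction is CellTiter-Glo luminescence normalised to the median of DMSO-only wells. Luminescence was measured after 10 minutes at room temperature, and only lines screened three times with replicate Pearson r >0.7 and median Z' >0.3 were kept.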

[2] = compound: COc1cc2nccc(Oc3ccc(NC(=O)NC4CC4)c(Cl)c3)c2cc1C(N)=O [LENVATINIB]; test: as above; settings: exposure time: 5 days
How it was run: as §1

Test System	surviving fraction ([1]; 0.5 nM)	surviving fraction ([1]; 1 nM)	surviving fraction ([1]; 5 nM)	surviving fraction ([1]; 10 nM)	surviving fraction ([1]; 50 nM)	surviving fraction ([1]; 100 nM)	surviving fraction ([1]; 500 nM)	surviving fraction ([1]; 1000 nM)	surviving fraction ([2]; 0.5 nM)	surviving fraction ([2]; 1 nM)	surviving fraction ([2]; 5 nM)	surviving fraction ([2]; 10 nM)	surviving fraction ([2]; 50 nM)	surviving fraction ([2]; 100 nM)	surviving fraction ([2]; 500 nM)	surviving fraction ([2]; 1000 nM)
CCK81 LARGE INTESTINE	0.78 ± 0.088	0.839 ± 0.07	0.759 ± 0.055	0.737 ± 0.11	0.931 ± 0.04	0.877 ± 0.046	0.702 ± 0.1	0.616 ± 0.023								
G292 BONE	1.04 ± 0.042	1 ± 0.044	1.08 ± 0.033	1.06 ± 0.048	1.08 ± 0.031	1.1 ± 0.023	1.02 ± 0.013	0.956 ± 0.023	0.99 ± 0.053	0.993 ± 0.054	1.02 ± 0.065	0.961 ± 0.019	0.838 ± 0.027	0.725 ± 0.013	0.33 ± 0.017	0.203 ± 0.0041
HCC38 BREAST	0.988 ± 0.28	0.786 ± 0.015	1.01 ± 0.16	0.818 ± 0.15	0.742 ± 0.2	0.758 ± 0.039	0.823 ± 0.24	0.824 ± 0.16	1.03 ± 0.056	1.19 ± 0.23	1.24 ± 0.24	1.19 ± 0.091	1.35 ± 0.052	1.28 ± 0.054	1.18 ± 0.091	1.09 ± 0.17
HCC70 BREAST	1.07 ± 0.049	1.13 ± 0.036	1.12 ± 0.02	1.09 ± 0.13	1.17 ± 0.052	1.33 ± 0.072	1.34 ± 0.079	1.31 ± 0.04	1.12 ± 0.07	1.136 ± 0.004	1.08 ± 0.067	1.15 ± 0.013	1.27 ± 0.1	1.13 ± 0.056	1.054 ± 0.0066	1.23 ± 0.09
HMLE3 BREAST	1.11 ± 0.018	1.07 ± 0.11	1.19 ± 0.1	1.18 ± 0.15	1.25 ± 0.026	1.26 ± 0.068	1.27 ± 0.15	1.23 ± 0.18	1.03 ± 0.019	0.951 ± 0.054	1.03 ± 0.052	1.05 ± 0.09	0.998 ± 0.12	0.905 ± 0.096	0.718 ± 0.029	0.658 ± 0.047
HMT3552 BREAST	1.01 ± 0.031	0.968 ± 0.018	1.04 ± 0.021	1.02 ± 0.018	1.09 ± 0.11	1.07 ± 0.11	1.12 ± 0.12	1.1 ± 0.069	1.03	0.978	1.01	0.921	0.975	1.02	0.944	0.893
HS57T BREAST	1.02 ± 0.12	1.05 ± 0.04	1.05 ± 0.066	1.06 ± 0.015	0.99 ± 0.038	1.08 ± 0.11	0.983 ± 0.03	0.967 ± 0.064	1.04 ± 0.027	1.01 ± 0.085	1.084 ± 0.0086	1.14 ± 0.049	1.1 ± 0.042	1.09 ± 0.064	0.831 ± 0.029	0.74 ± 0.023
HS578T BREAST	0.935 ± 0.21	1.06 ± 0.049	0.932 ± 0.16	0.796 ± 0.052	0.766 ± 0.084	0.841 ± 0.1	0.848 ± 0.091	0.669 ± 0.058	0.934 ± 0.11	1.16 ± 0.058	0.871 ± 0.17	0.974 ± 0.041	0.984 ± 0.078	0.91 ± 0.068	1.01 ± 0.1	0.871 ± 0.045
